Assay results reported in ChEMBL document CHEMBL1126507, “The synthesis of novel 8a-aza-8a-homoerythromycin derivatives via the beckmann rearrangement of (9z)-erythromycin a oxime” (1993).
≈ marks a conversion by molar mass, not a printed value.

Key:
Assay type in all cases: functional
[1] = tested on: Streptococcus pyogenes; assay: Minimum inhibitory concentration required for antibacterial activity against Streptococcus pyogenes MB 2874 strain
[2] = tested on: Staphylococcus epidermidis; assay: Minimum inhibitory concentration required for antibacterial activity against Staphylococcus epidermidis MB 5414 strain
[3] = tested on: Staphylococcus aureus; assay: Minimum inhibitory concentration required for antibacterial activity against Staphylococcus aureus MB 2865 strain
[4] = tested on: Enterobacter cloacae; assay: Minimum inhibitory concentration required for antibacterial activity against Enterobacter cloacae CL 4298 strain
[5] = tested on: Klebsiella pneumoniae; assay: Minimum inhibitory concentration required for antibacterial activity against Klebsiella pneumoniae MB 4005 strain
[6] = tested on: Haemophilus influenzae; assay: Minimum inhibitory concentration required for antibacterial activity against Haemophilus influenzae CL 1830 strain
[7] = tested on: Enterococcus faecalis; assay: Minimum inhibitory concentration required for antibacterial activity against Enterococcus faecalis MB 5407 strain
[8] = tested on: Escherichia coli; assay: Minimum inhibitory concentration required for antibacterial activity against Escherichia coli MB 2884 strain
[9] = tested on: Haemophilus influenzae; assay: Minimum inhibitory concentration required for antibacterial activity against Haemophilus influenzae MB 5363 strain
[10] = tested on: Streptococcus pneumoniae; assay: Minimum inhibitory concentration required for antibacterial activity against Streptococcus pneumoniae CL 2883 strain
[11] = tested on: Staphylococcus aureus; assay: Minimum inhibitory concentration required for antibacterial activity against Staphylococcus aureus MB 2865 strain;value ranges from 0.5-1
[12] = tested on: Staphylococcus epidermidis; assay: Minimum inhibitory concentration required for antibacterial activity against Staphylococcus epidermidis MB 5414 strain;value ranges from 16-128
[13] = tested on: Staphylococcus aureus; assay: Minimum inhibitory concentration required for antibacterial activity against Staphylococcus aureus MB 2865 strain;value ranges from 32-64
[14] = tested on: Haemophilus influenzae; assay: Minimum inhibitory concentration required for antibacterial activity against Haemophilus influenzae CL 1830 strain;value ranges from 8-16
[15] = tested on: Klebsiella pneumoniae; assay: Minimum inhibitory concentration required for antibacterial activity against Klebsiella pneumoniae MB 4005 strain;value ranges from 1-2
[16] = tested on: Escherichia coli; assay: Minimum inhibitory concentration required for antibacterial activity against Escherichia coli MB 2884 strain;value ranges from 1-2
[17] = tested on: Staphylococcus epidermidis; assay: Minimum inhibitory concentration required for antibacterial activity against Staphylococcus epidermidis MB 5414 strain;value ranges from 0.25-0.5
[18] = tested on: Haemophilus influenzae; assay: Minimum inhibitory concentration required for antibacterial activity against Haemophilus influenzae MB 5363 strain;value ranges from 0.5-2
[19] = tested on: Enterococcus faecalis; assay: Minimum inhibitory concentration required for antibacterial activity against Enterococcus faecalis MB 5407 strain;value ranges from 4-8
[20] = tested on: Enterobacter cloacae; assay: Minimum inhibitory concentration required for antibacterial activity against Enterobacter cloacae CL 4298 strain;value ranges from 32-64
[21] = tested on: Staphylococcus aureus; assay: microbe, parasite or virus in culture
[22] = tested on: Escherichia coli; assay: Minimum inhibitory concentration required for antibacterial activity against Escherichia coli MB 2884 strain;value ranges from 16-64
[23] = tested on: Haemophilus influenzae; assay: Minimum inhibitory concentration required for antibacterial activity against Haemophilus influenzae MB 5363 strain;value ranges from 2-4
[24] = tested on: Enterococcus faecalis; assay: Minimum inhibitory concentration required for antibacterial activity against Enterococcus faecalis MB 5407 strain;value ranges from 1-2
[25] = tested on: Klebsiella pneumoniae; assay: Minimum inhibitory concentration required for antibacterial activity against Klebsiella pneumoniae MB 4005 strain;value ranges from 32-64
[26] = tested on: Haemophilus influenzae; assay: Minimum inhibitory concentration required for antibacterial activity against Haemophilus influenzae CL 1830 strain;value ranges from 64-128
[27] = tested on: Staphylococcus aureus; assay: Minimum inhibitory concentration required for antibacterial activity against Staphylococcus aureus MB 2865 strain;value ranges from 0.25-1
[28] = tested on: Haemophilus influenzae; assay: Minimum inhibitory concentration required for antibacterial activity against Haemophilus influenzae CL 1830 strain;value ranges from 4-16

SMILES	MIC [1]	MIC [2]	MIC [4]	MIC [5]	MIC [6]	MIC [7]	MIC [8]	MIC [9]	MIC [10]	other results
CC[C@H]1OC(=O)[C@H](C)[C@@H](O[C@H]2C[C@@](C)(OC)[C@@H](O)[C@H](C)O2)[C@H](C)[C@@H](O[C@@H]2O[C@H](C)C[C@H](N(C)C)[C@H]2O)[C@](C)(O)C[C@@H](C)/N=C2/O[C@@]1(C)[C@H](O)[C@H]2C	2 µg/mL (≈ 2.74 µM)	16 µg/mL (≈ 21.9 µM)	128 µg/mL (≈ 175 µM)	> 128 µg/mL	> 128 µg/mL	> 128 µg/mL	128 µg/mL (≈ 175 µM)	64 µg/mL (≈ 87.6 µM)	4 µg/mL (≈ 5.47 µM)	MIC [3]: 16 µg/mL (≈ 21.9 µM)
CC[C@H]1OC(=O)[C@H](C)[C@@H](O[C@H]2C[C@@](C)(OC)[C@@H](O)[C@H](C)O2)[C@H](C)[C@@H](O[C@@H]2O[C@H](C)C[C@H](N(C)C)[C@H]2O)[C@](C)(O)C[C@@H](C)NC(=O)[C@H](C)[C@@H](O)[C@]1(C)O	≤ 0.06 µg/mL	0.5 µg/mL (≈ 0.668 µM)	–	32 µg/mL (≈ 42.7 µM)	–	8 µg/mL (≈ 10.7 µM)	16 µg/mL (≈ 21.4 µM)	32 µg/mL (≈ 42.7 µM)	≤ 0.06 µg/mL	MIC [3]: 0.5 µg/mL (≈ 0.668 µM)
CC[C@H]1OC(=O)[C@H](C)[C@@H](O[C@H]2C[C@@](C)(OC)[C@@H](O)[C@H](C)O2)[C@H](C)[C@@H](O[C@@H]2O[C@H](C)C[C@H](N(C)C)[C@H]2O)[C@@]2(C)C[C@@H](C)N=C(O2)[C@H](C)[C@@H](O)[C@]1(C)O	0.5 µg/mL (≈ 0.684 µM)	–	128 µg/mL (≈ 175 µM)	> 128 µg/mL	> 128 µg/mL	16 µg/mL (≈ 21.9 µM)	128 µg/mL (≈ 175 µM)	64 µg/mL (≈ 87.6 µM)	2 µg/mL (≈ 2.74 µM)	MIC [12]: 16 µg/mL (≈ 21.9 µM); MIC [13]: 32 µg/mL (≈ 43.8 µM)
CC[C@H]1OC(=O)[C@H](C)[C@@H](O[C@H]2C[C@@](C)(OC)[C@@H](O)[C@H](C)O2)[C@H](C)[C@@H](O[C@@H]2O[C@H](C)C[C@H](N(C)C)[C@H]2O)[C@](C)(O)C[C@@H](C)CN(C)[C@H](C)[C@@H](O)[C@]1(C)O [AZITHROMYCIN]	≤ 0.06 µg/mL	–	1 µg/mL (≈ 1.34 µM)	–	–	–	–	–	≤ 0.06 µg/mL	MIC [14]: 8 µg/mL (≈ 10.7 µM); MIC [15]: 1 µg/mL (≈ 1.34 µM); MIC [16]: 1 µg/mL (≈ 1.34 µM); MIC [17]: 0.25 µg/mL (≈ 0.334 µM); MIC [11]: 0.5 µg/mL (≈ 0.668 µM); MIC [18]: 0.5 µg/mL (≈ 0.668 µM); MIC [19]: 4 µg/mL (≈ 5.34 µM)
CC[C@H]1OC(=O)[C@H](C)[C@@H](O[C@H]2C[C@@](C)(OC)[C@@H](O)[C@H](C)O2)[C@H](C)[C@@H](O[C@@H]2O[C@H](C)C[C@H](N(C)C)[C@H]2O)[C@](C)(O)C[C@@H](C)C(=O)[C@H](C)[C@@H](O)[C@]1(C)O [ERYTHROMYCIN]	≤ 0.06 µg/mL	0.125 µg/mL (≈ 0.17 µM)	–	–	–	–	–	–	≤ 0.06 µg/mL	MIC [20]: 32 µg/mL (≈ 43.6 µM); MIC [21]: 0.125 µg/mL (≈ 0.17 µM); MIC [22]: 16 µg/mL (≈ 21.8 µM); MIC [23]: 2 µg/mL (≈ 2.73 µM); MIC [24]: 1 µg/mL (≈ 1.36 µM); MIC [25]: 32 µg/mL (≈ 43.6 µM); MIC [26]: 64 µg/mL (≈ 87.2 µM)

Further lines, with some results ahead:

MIC [1]	MIC [2]	MIC [4]	MIC [5]	MIC [6]	MIC [7]	MIC [8]	MIC [9]	MIC [10]	SMILES	other results
≤ 0.06 µg/mL	0.5 µg/mL (≈ 0.68 µM)	4 µg/mL (≈ 5.44 µM)	4 µg/mL (≈ 5.44 µM)	32 µg/mL (≈ 43.5 µM)	4 µg/mL (≈ 5.44 µM)	2 µg/mL (≈ 2.72 µM)	4 µg/mL (≈ 5.44 µM)	≤ 0.06 µg/mL	CC[C@H]1OC(=O)[C@H](C)[C@@H](O[C@H]2C[C@@](C)(OC)[C@@H](O)[C@H](C)O2)[C@H](C)[C@@H](O[C@@H]2O[C@H](C)C[C@H](N(C)C)[C@H]2O)[C@](C)(O)C[C@@H](C)NC[C@H](C)[C@@H](O)[C@]1(C)O	MIC [11]: 0.5 µg/mL (≈ 0.68 µM)
≤ 0.06 µg/mL	–	1 µg/mL (≈ 1.34 µM)	–	–	2 µg/mL (≈ 2.67 µM)	–	–	≤ 0.06 µg/mL	CC[C@H]1OC(=O)[C@H](C)[C@@H](O[C@H]2C[C@@](C)(OC)[C@@H](O)[C@H](C)O2)[C@H](C)[C@@H](O[C@@H]2O[C@H](C)C[C@H](N(C)C)[C@H]2O)[C@](C)(O)C[C@@H](C)N(C)C[C@H](C)[C@@H](O)[C@]1(C)O [L-701677]	MIC [15]: 1 µg/mL (≈ 1.34 µM); MIC [16]: 1 µg/mL (≈ 1.34 µM); MIC [17]: 0.25 µg/mL (≈ 0.334 µM); MIC [27]: 0.25 µg/mL (≈ 0.334 µM); MIC [18]: 0.5 µg/mL (≈ 0.668 µM); MIC [28]: 4 µg/mL (≈ 5.34 µM)
